Experiment: xn = mol fraction of the nth substance listed
Conditions: 100 kPa

For `CCOC(C)=O` + CCCC[n+]1ccn(C)c1.O=S(=O)([N-]S(=O)(=O)C(F)(F)F)C(F)(F)F, the speed of sound (298.15 K, x2 = 0) was 1143.2 m/s, the speed of sound (298.15 K, x2 = 0.2067) was 1172 m/s and the speed of sound (298.15 K, x2 = 0.3058) was 1182.9 m/s. The speed of sound (298.15 K, x2 = 0.4012) was 1192 m/s, the speed of sound (298.15 K, x2 = 0.6065) was 1207.6 m/s and the speed of sound (298.15 K, x2 = 0.7081) was 1213.7 m/s. For the same molecule, the speed of sound (298.15 K, x2 = 0.7932) was 1218.2 m/s, the speed of sound (303.15 K, x2 = 0) was 1120.8 m/s and the speed of sound (303.15 K, x2 = 0.1045) was 1137.6 m/s. It also gave a speed of sound (303.15 K, x2 = 0.2067) of 1151.9 m/s, a speed of sound (303.15 K, x2 = 0.3058) of 1164 m/s and a speed of sound (303.15 K, x2 = 0.4012) of 1174.2 m/s. For the same molecule, the speed of sound (303.15 K, x2 = 0.5002) was 1183.4 m/s, the speed of sound (303.15 K, x2 = 0.6065) was 1192 m/s and the speed of sound (303.15 K, x2 = 0.7081) was 1199.3 m/s. The speed of sound (303.15 K, x2 = 0.9087) was 1211.6 m/s, the speed of sound (308.15 K, x2 = 0) was 1098.7 m/s and the speed of sound (308.15 K, x2 = 0.1045) was 1116.7 m/s. It also gave a speed of sound (308.15 K, x2 = 0.2067) of 1132.1 m/s, a speed of sound (308.15 K, x2 = 0.3058) of 1145.3 m/s and a speed of sound (308.15 K, x2 = 0.5002) of 1166.9 m/s. It also gave a speed of sound (308.15 K, x2 = 0.6065) of 1176.7 m/s, a speed of sound (308.15 K, x2 = 0.7081) of 1185.1 m/s and a speed of sound (308.15 K, x2 = 0.7932) of 1191.5 m/s. It also gave a speed of sound (308.15 K, x2 = 0.9087) of 1199.6 m/s, a speed of sound (313.15 K, x2 = 0) of 1076.4 m/s and a speed of sound (313.15 K, x2 = 0.1045) of 1095.5 m/s. It also gave a speed of sound (313.15 K, x2 = 0.2067) of 1112.1 m/s, a speed of sound (313.15 K, x2 = 0.3058) of 1126.5 m/s and a speed of sound (313.15 K, x2 = 0.4012) of 1138.8 m/s. For the same molecule, the speed of sound (313.15 K, x2 = 0.5002) was 1150.3 m/s, the speed of sound (313.15 K, x2 = 0.6065) was 1161.3 m/s and the speed of sound (313.15 K, x2 = 0.9087) was 1187.7 m/s. For the same molecule, the speed of sound (318.15 K, x2 = 0.1045) was 1074.5 m/s, the speed of sound (318.15 K, x2 = 0.3058) was 1107.8 m/s and the speed of sound (318.15 K, x2 = 0.4012) was 1121.2 m/s. It also gave a speed of sound (318.15 K, x2 = 0.6065) of 1146.1 m/s, a speed of sound (318.15 K, x2 = 0.7932) of 1165.2 m/s and a speed of sound (323.15 K, x2 = 0) of 1032 m/s. The speed of sound (323.15 K, x2 = 0.1045) was 1053.5 m/s, the speed of sound (323.15 K, x2 = 0.2067) was 1072.5 m/s and the speed of sound (323.15 K, x2 = 0.4012) was 1103.7 m/s. The speed of sound (323.15 K, x2 = 0.5002) was 1117.4 m/s, the speed of sound (323.15 K, x2 = 0.6065) was 1130.9 m/s and the speed of sound (323.15 K, x2 = 0.7081) was 1142.8 m/s. For the same molecule, the speed of sound (323.15 K, x2 = 0.9087) was 1164.3 m/s.

`CCCC[n+]1ccn(C)c1.O=S(=O)([N-]S(=O)(=O)C(F)(F)F)C(F)(F)F` + CCOC(C)=O showed a speed of sound (298.15 K, x1 = 1) of 1227.9 m/s, a speed of sound (303.15 K, x1 = 1) of 1216.8 m/s and a speed of sound (308.15 K, x1 = 1) of 1205.8 m/s. It also gave a speed of sound (313.15 K, x1 = 1) of 1195 m/s, a speed of sound (318.15 K, x1 = 1) of 1184.2 m/s and a speed of sound (323.15 K, x1 = 1) of 1173.6 m/s.

Reference: a compilation of properties of binary mixtures (doi:10.1016/j.jct.2020.106383)
